Legend:
Format in all cases: in vivo, human
[1] = system: subjects with ADHD; assay: Eye movement signal parameters before/after methylphenidate, ADHD subjects (Example 6.6)
Description: (§1) Strain gauge sensors (SleepSense Limb Movement Sensors) from SleepSense were used as eye movement sensors. These where connected to a Digital Brain Electric Activity Mapping KT88 EEG apparatus as a recording and frequency analysis arrangement.
(§2) The subjects were instructed to keep their eyes closed, but to refrain from falling asleep.
(§3) The signal from the sensors where filtered by one of two different filters; a 2.5 Hz low pass filter with 24 dB reduction.
(§4) A signal was recorded over a period of 5 minutes. 1 minute of signal is illustrated in FIG. 3.
(§5) Eye movement signals were recorded using the methods described in example 1.
Data from 7 subjects with ADHD examined before treatment. Hereafter methylphenidate was administered, and after a subjective assessment of an effect thereof, the measurement was repeated. The sensors were in place during the entire test.

[2] = system: subjects with an AHDH or ADD diagnosis; assay: Maximum FFT amplitude before/after startup of methylphenidate treatment (Example 7.3); details: for decrease in eye activity (RC): no positive effect of the treatment
Description: A number of sample signals were recorded. Each sample was recorded over a period of 360 seconds. Only the middle 240 seconds are used, as the first 60 seconds and the last 60 second of the signal is discarded to avoid introducing artifacts related to the startup and termination of the test and the subject getting used to the eye sensors etc.
The signals were subjected to frequency analysis by FFT with 100 mHz solution.
Maximum amplitude of the frequency distribution (i.e. max FFT amplitude) is identified.
20 subjects with an AHDH or ADD diagnosis were evaluated with respect to effect of startup of methylphenidate treatment. A sample was recorded for each subject in accordance with example 7.2, and a maximum FFT amplitude was outputted from the frequency analysis arrangement (maximum FFT amplitude before, MAB). Thereafter, a startup dose of methylphenidate was prescribed for each subject. After ingestion, a further sample was recorded for each subject, and a maximum FFT amplitude was outputted from the frequency analysis arrangement (maximum FFT amplitude after, MAA).

[3] = system: patient with ADHD; assay: Frequency analysis (FFT) of closed-eye movement signal before/after medication, Example 5; details: one tablet of 10 mg
Description: as §1, §2, §3, §4
Using eye movement signals recorded as explained in example 1, frequency analysis was performed to determine a frequency distribution. However, only a 10 seconds period corresponding to the first 10 seconds of the latency time of example 2 was used. A Fast Fourier Transformation (FFT) based algorithm was used, with a 100 mHz resolution.
Using eye movement signals recorded as explained in example 1, frequency analysis was performed to determine a frequency distribution. A Fast Fourier Transformation (FFT) based algorithm was used, with a 100 mHz resolution.
In example 5, signals were recorded on a patient with ADHD.
On FIG. 6A is the result when the patient was in an initial, unmedicated state. […]

[4] = system: patient with ADHD; assay: Number of large eye movements before/after medication, Example 5
Description: as §1, §2, §3, §4
A large eye movement number was established as the number of times the signals exceeded 50 μV, or moved below −50 μV. This signifies the number of large eye movements.
On FIG. 6A is the result when the patient was in an initial, unmedicated state. A second measurement was made after administering suitable ADHD-medication to the patient (one tablet of 10 mg of methylphenidate), this is shown in FIG. 6B.
Furthermore, the number of eye movements was analyzed as in example 1, before and after medication.

[5] = system: subjects with ADD; assay: Eye movement signal parameters before/after methylphenidate, ADD subjects (Example 6.6)
Description: as §1, §2, §3, §4, §5
In 3 out of 4 cases, an increase in the amplitude and a decrease in the average frequency was observed.

COC(=O)C(c1ccccc1)C1CCCCN1 (centres unmarked) [methylphenidate]
cases with a fall in the amplitude and an increase in the average frequency ([1]; of 7 subjects with ADHD, after methylphenidate): 6 cases
DATA B Av Fq ([1]; subject 143/144, after treatment, before 3.241667): 4.858
DATA B FFT Amplitude ([1]; subject 143/144, after treatment, before 15): 7
DATA B Av Amp ([1]; subject 143/144, after treatment, before −0.37474): 0.001138
DATA B Av Fq ([1]; subject 167/168, after treatment, before 4.511667): 4.647
DATA B FFT Amplitude ([1]; subject 167/168, after treatment, before 10): 9.6
DATA B Av Amp ([1]; subject 167/168, after treatment, before −0.199017): 0.04479
DATA B Av Amp ([1]; subject 177/178, after treatment, before 0.578600): 0.5056
DATA B Av Fq ([1]; subject 177/178, after treatment, before 2.05333): 2.23
DATA B FFT Amplitude ([1]; subject 177/178, after treatment, before 28): 26
DATA B Av Amp ([1]; subject 179/180, after treatment, before 0.002030): 0.04999
DATA B Av Fq ([1]; subject 179/180, after treatment, before 3.07500): 3.695
DATA B FFT Amplitude ([1]; subject 179/180, after treatment, before 9.5): 4.1
DATA B Av Amp ([1]; subject 187/188, after treatment, before 0.061771): 0.09263
DATA B Av Fq ([1]; subject 187/188, after treatment, before 2.73667): 2.553
DATA B FFT Amplitude ([1]; subject 187/188, after treatment, before 9.5): 12
DATA B Av Amp ([1]; subject 189/190, after treatment, before 0.012759): 0.007571
DATA B Av Fq ([1]; subject 189/190, after treatment, before 3.79500): 3.947
DATA B FFT Amplitude ([1]; subject 189/190, after treatment, before 8.5): 5.0
DATA B Av Amp ([1]; subject 192/193, after treatment, before 0.046206): 0.000667
DATA B Av Fq ([1]; subject 192/193, after treatment, before 2.425000): 4.838
DATA B FFT Amplitude ([1]; subject 192/193, after treatment, before 22): 8.0
Eff. M.: Evaluation of effect of methylphenidate ([2]; subject 143 ADHD): Good
RC: relative change in FFT amplitude ([2]; subject 143 ADHD): −53
MAA: Maximum FFT amplitude after ([2]; subject 143 ADHD, MAB 14.3): 6.7
Eff. M.: Evaluation of effect of methylphenidate ([2]; subject 146): No
RC: relative change in FFT amplitude ([2]; subject 146): 100
MAA: Maximum FFT amplitude after ([2]; subject 146, MAB 2.8): 5.6
Eff. M.: Evaluation of effect of methylphenidate ([2]; subject 148 ADHD): Good
RC: relative change in FFT amplitude ([2]; subject 148 ADHD): −60
MAA: Maximum FFT amplitude after ([2]; subject 148 ADHD, MAB 8.7): 3.5
Eff. M.: Evaluation of effect of methylphenidate ([2]; subject 152): Good
RC: relative change in FFT amplitude ([2]; subject 152): −56
MAA: Maximum FFT amplitude after ([2]; subject 152, MAB 4.58): 2.0
Eff. M.: Evaluation of effect of methylphenidate ([2]; subject 155): No
RC: relative change in FFT amplitude ([2]; subject 155): 17
MAA: Maximum FFT amplitude after ([2]; subject 155, MAB 3.6): 4.2
decrease in eye activity (RC) ([2]; subject 177): below 10%
Eff. M.: Evaluation of effect of methylphenidate ([2]; subject 177 ADHD): No
RC: relative change in FFT amplitude ([2]; subject 177 ADHD): −7
MAA: Maximum FFT amplitude after ([2]; subject 177 ADHD, MAB 26.7): 24.8
Eff. M.: Evaluation of effect of methylphenidate ([2]; subject 179 ADHD): Good
RC: relative change in FFT amplitude ([2]; subject 179 ADHD): −65
MAA: Maximum FFT amplitude after ([2]; subject 179 ADHD, MAB 8.9): 3.1
Eff. M.: Evaluation of effect of methylphenidate ([2]; subject 184): Good
RC: relative change in FFT amplitude ([2]; subject 184): 65
MAA: Maximum FFT amplitude after ([2]; subject 184, MAB 4.8): 7.9
Eff. M.: Evaluation of effect of methylphenidate ([2]; subject 187 ADHD): Good
RC: relative change in FFT amplitude ([2]; subject 187 ADHD): 19
MAA: Maximum FFT amplitude after ([2]; subject 187 ADHD, MAB 9.0): 10.7
Eff. M.: Evaluation of effect of methylphenidate ([2]; subject 189): Good
RC: relative change in FFT amplitude ([2]; subject 189): −39
MAA: Maximum FFT amplitude after ([2]; subject 189, MAB 9.0): 5.5
Eff. M.: Evaluation of effect of methylphenidate ([2]; subject 192 ADHD): Good
RC: relative change in FFT amplitude ([2]; subject 192 ADHD): −66
MAA: Maximum FFT amplitude after ([2]; subject 192 ADHD, MAB 21.4): 7.3
Eff. M.: Evaluation of effect of methylphenidate ([2]; subject 197): Good
RC: relative change in FFT amplitude ([2]; subject 197): −56
MAA: Maximum FFT amplitude after ([2]; subject 197, MAB 14.2): 6.2
Eff. M.: Evaluation of effect of methylphenidate ([2]; subject 202 ADHD): No
RC: relative change in FFT amplitude ([2]; subject 202 ADHD): 33
MAA: Maximum FFT amplitude after ([2]; subject 202 ADHD, MAB 34.4): 45.9
Eff. M.: Evaluation of effect of methylphenidate ([2]; subject 204 ADHD): Good
RC: relative change in FFT amplitude ([2]; subject 204 ADHD): −66
MAA: Maximum FFT amplitude after ([2]; subject 204 ADHD, MAB 6.2): 2.1
Eff. M.: Evaluation of effect of methylphenidate ([2]; subject 210 ADHD): No
RC: relative change in FFT amplitude ([2]; subject 210 ADHD): 14
MAA: Maximum FFT amplitude after ([2]; subject 210 ADHD, MAB 7.6): 8.7
Eff. M.: Evaluation of effect of methylphenidate ([2]; subject 212): No
RC: relative change in FFT amplitude ([2]; subject 212): 27
MAA: Maximum FFT amplitude after ([2]; subject 212, MAB 13.1): 16.7
Eff. M.: Evaluation of effect of methylphenidate ([2]; subject 248 ADHD): No
RC: relative change in FFT amplitude ([2]; subject 248 ADHD): 14
MAA: Maximum FFT amplitude after ([2]; subject 248 ADHD, MAB 15.9): 18.2
Eff. M.: Evaluation of effect of methylphenidate ([2]; subject 250): Good
RC: relative change in FFT amplitude ([2]; subject 250): −24
MAA: Maximum FFT amplitude after ([2]; subject 250, MAB 15.8): 12.0
Eff. M.: Evaluation of effect of methylphenidate ([2]; subject 255): Good
RC: relative change in FFT amplitude ([2]; subject 255): −30
MAA: Maximum FFT amplitude after ([2]; subject 255, MAB 22.9): 16.0
Eff. M.: Evaluation of effect of methylphenidate ([2]; subject 258): No
RC: relative change in FFT amplitude ([2]; subject 258): −2
MAA: Maximum FFT amplitude after ([2]; subject 258, MAB 11.2): 11.0
decrease in eye activity (RC) ([2]; subject 258): below 10%
maximum value of frequency components after medication, reduction to ([3]; 10 s period, FIG. 6C vs 6D): ~20%
frequency content after medication, reduction to ([3]; 5 min signal, FIG. 6A vs 6B): ~50%
Number of eye movements after medication ([4]; 1-60 s, signal exceeding +/− 50 μV, before 54): 60
Number of eye movements after medication ([4]; 61-120 s, before 15): 0
Number of eye movements after medication ([4]; 121-180 s, before 23): 2
Number of eye movements after medication ([4]; 181-240 s, before 16): 1
Number of eye movements after medication ([4]; 241-300 s, before 14): 2
cases with an increase in the amplitude and a decrease in the average frequency ([5]; out of 4 ADD subjects treated with methylphenidate): 3 cases
DATA B Av Amp ([5]; subject 146/147, after treatment, before 0.031965): 0.03275
DATA B FFT Amplitude ([5]; subject 146/147, after treatment, before 3): 6.1
DATA B Av Fq ([5]; subject 146/147, after treatment, before 5.07667): 4.083
DATA B Av Amp ([5]; subject 152/153, after treatment, before 0.061080): 0.04852
DATA B Av Fq ([5]; subject 152/153, after treatment, before 3.62833): 4.618
DATA B FFT Amplitude ([5]; subject 152/153, after treatment, before 5.5): 4.2
DATA B Av Amp ([5]; subject 170/171, after treatment, before 0.030927): 0.02591
DATA B FFT Amplitude ([5]; subject 170/171, after treatment, before 2.5): 2.6
DATA B Av Fq ([5]; subject 170/171, after treatment, before 5.80555): 5.523
DATA B Av Amp ([5]; subject 184/185, after treatment, before 0.054841): 0.05472
DATA B Av Fq ([5]; subject 184/185, after treatment, before 4.42333): 3.64
DATA B FFT Amplitude ([5]; subject 184/185, after treatment, before 5.0): 8.0
